Test results reported in patent US20240279236A1, “COMPOUNDS AND METHODS OF TREATING TUBERCULOSIS” (Fimbrion Therapeutics, Inc., priority 2021, published 2024).

Tested on: WT Mtb Erdman strain
Assay: Microplate Alamar Blue Assay (MABA), Mtb growth inhibition
Assay type: cell-based, Mycobacterium tuberculosis
Conditions: Mycobacterium tuberculosis, ERDMAN, 168 h, Middlebrook 7H9 media, 7 days at 37° C. in 5% CO2

SMILES | IC50
CCc1nc(NCCc2ccc(Cl)cc2)c2cc(C)sc2n1 [Example 7, N-(4-chlorophenethyl)-2-ethyl-6-methylthieno[2,3-d]pyrimidin-4-amine] | 1100 nM
Cc1nc(-c2nc(NCCCc3ccccc3)c3cc(C)sc3n2)co1 [Example 141, 6-methyl-2-(2-methyloxazol-4-yl)-N-(3-phenylpropyl)thieno [2,3-d]pyrimidin-4-amine] | 1200 nM
Cc1cc2c(NCCCc3ccc(-c4ccc(OC(F)(F)F)cc4)cc3)nc(N3CCC(F)(F)C3)nc2s1 [Example 534, 2-(3,3-difluoropyrrolidin-1-yl)-6-methyl-N-(3-(4′-(trifluoromethoxy)-[1,1′-biphenyl]-4-yl)propyl)thieno[2,3-d]pyrimidin-4-amine] | 86 nM
CCc1nc(NCCc2ccc(C(F)(F)F)cc2)c2cc(C)sc2n1 [Example 19, 2-ethyl-6-methyl-N-(4-(trifluoromethyl)phenethyl)thieno[2,3-d]pyrimidin-4-amine] | 2900 nM
CSc1cnc(-c2ccc(CCCNc3nc(-c4ccoc4)nc4sc(C)cc34)cc2)cn1 [Example 399, 2-(furan-3-yl)-6-methyl-N-(3-(4-[5-(methylsulfanyl)pyrazin-2-yl]phenyl)propyl) thieno[2,3-d] pyrimidin-4-amine] | > 270 nM
Cc1cc2c(NCCCc3ccc(Cl)cc3)nc(C(F)(F)F)nc2s1 [Example 245, N-(3-(4-chlorophenyl)propyl)-6-methyl-2-(trifluoromethyl) thieno[2,3-d] pyrimidin-4-amine] | 1800 nM
Cc1cc2c(N[C@@H]3C[C@H]3c3ccc(F)c(F)c3)nc(-c3ccc(F)c(F)c3)nc2s1 [Example 500, 2-(3,4-difluorophenyl)-N-((1R,2S)-2-(3,4-difluorophenyl)cyclopropyl)-6-methylthieno[2,3-d]pyrimidin-4-amine] | 3600 nM
Cc1cc2c(NCCCc3ccccc3)nc(CN3CCCC3)nc2s1 [Example 108, 6-methyl-N-(3-phenylpropyl)-2-(pyrrolidin-1-yLM ethyl)thieno[2,3-d]pyrimidin-4-amine] | > 7800 nM
CCc1nc(NCCCc2cccc(C(F)(F)F)c2)c2cc(C)sc2n1 [Example 190, 2-ethyl-6-methyl-N-(3-(3-(trifluoromethyl)phenyl)propyl) thieno[2,3-d] pyrimidin-4-amine] | 550 nM
Cc1cc2c(NCCCc3ccc(-c4ccc(C(F)(F)F)nc4)cc3)nc(-c3ccoc3)nc2s1 [Example 428, 2-(furan-3-yl)-6-methyl-N-(3-(4-(6-(trifluoromethyl)pyridin-3-yl)phenyl)propyl)thieno[2,3-d]pyrimidin-4-amine] | 20 nM
Cc1cc2c(NCC(C)(C)Cc3ccccc3)nc(C(F)(F)F)nc2s1 [Example 186, N-(2,2-dimethyl-3-phenylpropyl)-6-methyl-2-(trifluoromethyl) thieno[2,3-d] pyrimidin-4-amine] | > 10000 nM
CCc1nc(NCCCc2ccc(-c3ccc(C(F)(F)F)nc3)cc2)c2cc(C)sc2n1 [Example 297, 2-ethyl-6-methyl-N-(3-(4-(6-(trifluoromethyl)pyridin-3-yl)phenyl)propyl) thieno[2,3-d]pyrimidin-4-amine] | 34 nM
CCc1nc(NCCc2cccnc2)c2cc(C)sc2n1 [Example 13, 2-ethyl-6-methyl-N-(2-(pyridin-3-yl)ethyl)thieno[2,3-d]pyrimidin-4-amine] | > 10000 nM
Cc1cc2c(NCCCc3ccc(N)cc3)nc(C(F)(F)F)nc2s1 [Example 235, N-(3-(4-aminophenyl)propyl)-6-methyl-2-(trifluoromethyl) thieno[2,3-d]pyrimidin-4-amine] | > 9900 nM
Cc1cc2c(NCCCc3ccc(-c4ccc(Cl)c(Cl)c4)cc3)nc(C(F)(F)F)nc2s1 [Example 290, N-(3-(3′,4′-dichloro-[1,1′-biphenyl]-4-yl)propyl)-6-methyl-2-(trifluoromethyl) thieno[2,3-d]pyrimidin-4-amine] | 390 nM
CCc1nc(NCCCc2ccc(C)cc2)c2cc(C)sc2n1 [Example 251, 2-ethyl-6-methyl-N-(3-(p-tolyl)propyl)thieno [2,3-d]pyrimidin-4-amine] | 100 nM
Cc1cc2c(NCCCc3ccccc3)nc(NCc3ccco3)nc2s1 [Example 529, N2-(furan-2-ylmethyl)-6-methyl-N4-(3-phenylpropyl)thieno[2,3-d]pyrimidine-2,4-diamine] | > 10000 nM
CCc1nc(NCCCc2cccc(OC(F)(F)F)c2)c2cc(C)sc2n1 [Example 255, 2-ethyl-6-methyl-N-(3-(3-(trifluoromethoxy)phenyl)propyl)thieno [2,3-d]pyrimidin-4-amine] | 570 nM
Cc1ccc(-c2ccc(CCCNc3nc(-c4ccoc4)nc4sc(C)cc34)cc2)s1 [Example 336, 2-(furan-3-yl)-6-methyl-N-(3-[4-(5-methylthiophen-2-yl)phenyl]propyl)thieno[2,3-d]pyrimidin-4-amine] | 15 nM
Cc1cc2c(NCCCc3ccc(-c4ccc(OC(F)(F)F)cc4)cc3)nc(-c3cnc[nH]3)nc2s1 [Example 442, 2-(1H-imidazol-5-yl)-6-methyl-N-(3-(4′-(trifluoromethoxy)-[1,1′-biphenyl]-4-yl)propyl)thieno[2,3-d]pyrimidin-4-amine] | 230 nM
CCc1nc(NCCCc2ccc(-c3ccc(Cl)cc3)cc2)c2cc(C)sc2n1 [Example 273, N-(3-(4′-chloro-[1,1′-biphenyl]-4-yl)propyl)-2-ethyl-6-methylthieno[2,3-d]pyrimidin-4-amine] | 38 nM

SMILES | IC50
CCc1nc(NCCCc2ccc3ncccc3c2)c2cc(C)sc2n1 [Example 254, 2-ethyl-6-methyl-N-(3-(quinolin-6-yl)propyl)thieno[2,3-d]pyrimidin-4-amine] | 1500 nM
Cc1cc2c(NCCCN3CCN(c4ccccc4)CC3)nc(-c3ccoc3)nc2s1 [Example 208, 2-(furan-3-yl)-6-methyl-N-(3-(4-phenylpiperazin-1-yl)propyl)thieno[2,3-d]pyrimidin-4-amine] | 3200 nM
Cc1cc2c(NCCCc3ccc(O)cc3)nc(C(F)(F)F)nc2s1 [Example 184, 4-(3-((6-methyl-2-(trifluoromethyl)thieno[2,3-d]pyrimidin-4-yl)amino)propyl) phenol] | > 10000 nM
CCc1nc(NCCCc2ccc(F)cc2)c2cc(C)sc2n1 [Example 191, 2-ethyl-N-(3-(4-fluorophenyl)propyl)-6-methylthieno[2,3-d]pyrimidin-4-amine] | 360 nM
COc1ccc(CCCNc2nc(C(F)(F)F)nc3sc(C)cc23)cc1 [Example 49, N-(3-(4-methoxyphenyl)propyl)-6-methyl-2-(trifluoromethyl)thieno [2,3-d]pyrimidin-4-amine] | 2000 nM
Cc1cc2c(NCCCc3ccccc3)nc(C(F)(F)F)nc2s1 [Example 166, 6-methyl-N-(3-phenylpropyl)-2-(trifluoromethyl) thieno[2,3-d] pyrimidin-4-amine] | < 510 nM
CCc1nc(NCCCc2ccc(-c3ccncc3)cc2)c2cc(C)sc2n1 [Example 271, 2-ethyl-6-methyl-N-(3-(4-(pyridin-4-yl)phenyl)propyl) thieno[2,3-d]pyrimidin-4-amine] | 350 nM
Cc1cc(-c2nc(NCCCc3ccccc3)c3cc(C)sc3n2)c(C)o1 [Example 139, 2-(2,5-dimethylfuran-3-yl)-6-methyl-N-(3-phenylpropyl)thieno [2,3-d]pyrimidin-4-amine] | > 10000 nM
Cc1cc2c(NCCCc3ccc(-c4ccc(OC(F)(F)F)cc4)cc3)nc(-c3ccccn3)nc2s1 [Example 286, 6-methyl-2-(pyridin-2-yl)-N-(3-(4′-(trifluoromethoxy)-[1,1′-biphenyl]-4-yl)propyl)thieno [2,3-d]pyrimidin-4-amine] | 130 nM
Cc1cc2c(NCCCc3ccccc3)nc(-c3ccco3)nc2s1 [Example 113] | 800 nM
CCc1nc(NCCCc2cn(-c3ccccc3)nn2)c2cc(C)sc2n1 [Example 563, 2-ethyl-6-methyl-N-(3-(1-phenyl-1H-1,2,3-triazol-4-yl)propyl)thieno[2,3-d]pyrimidin-4-amine] | 4700 nM
COC(=O)c1ccc(CCCNc2nc(C(F)(F)F)nc3sc(C)cc23)cc1 [Example 246, methyl 4-(3-((6-methyl-2-(trifluoromethyl)thieno[2,3-d]pyrimidin-4-yl)amino)propyl) benzoate] | > 10000 nM
Cc1cc2c(NCCCN(C)c3ccccc3)nc(C(F)(F)F)nc2s1 [Example 172, N1-methyl-N3-(6-methyl-2-(trifluoromethyl)thieno[2,3-d]pyrimidin-4-yl)-N1-phenylpropane-1,3-diamine] | 4200 nM
Cc1cc2c(NCCCc3ccc(-c4ccc5c(ccn5C)c4)cc3)nc(-c3ccoc3)nc2s1 [Example 329, 2-(furan-3-yl)-6-methyl-N-(3-[4-(1-methyl-1H-indol-5-yl)phenyl]propyl) thieno[2,3-d]pyrimidin-4-amine] | 34 nM
Cc1nc(NCCCc2ccccc2)c2ncsc2n1 [Example 584, 5-methyl-N-(3-phenylpropyl)thiazolo[5,4-d]pyrimidin-7-amine] | > 10000 nM
CCc1nc(NCCc2cccc(OC)c2)c2cc(C)sc2n1 [Example 37, 2-ethyl-N-(3-methoxyphenethyl)-6-methylthieno[2,3-d]pyrimidin-4-amine] | > 7900 nM
CSc1nc(NCCCOc2ccc(Cl)cc2)c2cc(C)sc2n1 [Example 71, N-(3-(4-chlorophenoxy)propyl)-6-methyl-2-(methylthio)thieno[2,3-d]pyrimidin-4-amine] | 350 nM
CCc1nc(NCCCc2ccc(-c3ccc(C#N)cc3)cc2)c2cc(C)sc2n1 [Example 303, 4′-(3-((2-ethyl-6-methylthieno[2,3-d]pyrimidin-4-yl)amino)propyl)-[1,1′-biphenyl]-4-carbonitrile] | 37 nM
Cc1cc2c(NCCCc3ccc(-c4ccc(OC(F)(F)F)cc4)cc3)nc(N3CCCC3)nc2s1 [Example 528, 6-methyl-2-(pyrrolidin-1-yl)-N-(3-(4′-(trifluoromethoxy)-[1,1′-biphenyl]-4-yl)propyl)thieno[2,3-d]pyrimidin-4-amine] | 18 nM
Cc1cc2c(NCCCNc3ccccc3)nc(C(F)(F)F)nc2s1 [Example 173, N1-(6-methyl-2-(trifluoromethyl)thieno[2,3-d]pyrimidin-4-yl)-N3-phenylpropane-1,3-diamine] | 3300 nM
